Data reported in US8426437B2, “Pyrroloquinoline derivatives and their use as protein kinases inhibitors” (Pierre Fabre Medicament, priority 2005, dated 2013).
pIC50: −log10 of the molar value. Where a name gives a salt, the structure may show the parent alone.

How the values were obtained:
Assay type in all cases: biochemical
RET = target: T1, RET (Homo sapiens, UniProt P07949); assay: Inhibition of RET kinase activity, recombinant RET method (Kinase-Glo); conditions: RET 2 μg/ml, poly-EY4 substrate, 20 μM ATP, two hours at 30° C.
T1 construct: purchased Upstate 14-570MG
Procedure, shortened: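 Recombinant RET at 2 μg/ml in 20 mM MOPS/NaOH pH 7.0, 1 mM EDTA, 5% glycerol, 0.01% Brij35, 0.1% 2-mercaptoethanol, 1 mg/ml BSA; compounds 10 nM–30 μM final.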

ALK = ALK (Homo sapiens, UniProt Q9UM73); assay: Inhibition of kinase ALK (PLCγ1-GST substrate, anti-phosphotyrosine ELISA); conditions: ALK 180 ng/ml, 250 μM ATP, 30 minutes at 30° C.
Experimental: Incubation is carried out for 30 minutes at 30° C. with agitation.
The signal is read in luminescent mode using a luminometer.

PIM-1 = target: T2, PIM-1 (Homo sapiens, UniProt P11309); assay: Inhibition of kinase PIM-1 (Kinase-Glo); conditions: PIM-1 0.625 μg/ml, 10 μM ATP, forty minutes at 30° C.
T2 construct: purchased Upstate 14-573
Experimental: Protein PIM-1 (Upstate #14-573 batch 25864U) is incubated at a concentration of 0.625 μg/ml in a buffer containing 8 mM of MOPS/NaOH pH7, 0.2 mM EDTA, 5 mM MgAc (Sigma #229768), 0.01% Triton Tx100, in the presence of 70 μM of peptide substrate S6 Kinase/Rsk2 (Upstate #12-243), and 10 μM of ATP.
The dilution buffer for PIM-1 is as follows: 20 mM MOPS/NaOH pH7, 1 mM EDTA, 5% glycerol, 0.01% Brij35, 0.1% 2-mercapto, 1 mg/ml BSA
(§1) The compound to be tested is first added to the enzyme to give a reaction volume of 50 μl. The dilution of the compounds of the invention is distributed so as to obtain a scale of final concentrations between 10 nM and 30 μM.
(§2) After incubation of the reaction mixture for forty minutes at 30° C., the level of ATP that remains is assayed using the Kinase-Glo Luminescent Kinase Assay (Promega #V6712) according to the conditions recommended by the supplier. The luminescence induced is read in a plate reader (Envision-Perkin Elmer).

TrkA = target: T3, TrkA (Homo sapiens, UniProt P04629); assay: Inhibition of kinase TrkA (Kinase-Glo); conditions: TrkA 4 μg/ml, 30 μM ATP, two hours at 30° C.
T3 construct: purchased Upstate 14-571
Experimental: Protein TrkA (Upstate 14-571; batch #25634U) is incubated at a concentration of 4 μg/ml in a buffer containing 8 mM of MOPS/NaOH pH7, 0.2 mM EDTA, 40 mM MgAc (Sigma #229768), 1 mM DTT (Fluka #43816), NaOV 1 mM, 0.01% Triton Tx100, in the presence of 1 mg/ml of peptide substrate poly-EY (Upstate #P0275), and 30 μM of ATP.
The dilution buffer for TrkA is as follows: 20 mM MOPS/NaOH pH7, 1 mM EDTA, 5% glycerol, 0.01% Brij35, 0.1% 2-mercapto, 1 mg/ml BSA.
as §1
as §2, with “two hours” for “forty minutes”

TrkB = target: T4, TrkB (Homo sapiens, UniProt Q16620); assay: Inhibition of kinase TrkB (Kinase-Glo); conditions: TrkB 4 μg/ml, 40 μM ATP, two hours at 30° C.
T4 construct: purchased Upstate 14-507
Experimental: Protein TrkB (Upstate 14-507; batch #25578U) is incubated at a concentration of 4 μg/ml in a buffer containing 8 mM of MOPS/NaOH pH7, 0.2 mM EDTA, 40 mM MgAc (Sigma #229768), 1 mM DTT (Fluka #43816), NaOV 1 mM, 25 mM 2-glycerolphosphate (Sigma #G9891), in the presence of 2.5 mg/ml of peptide substrate poly-EY (Upstate #P0275), and 40 μM of ATP.
The dilution buffer for TrkB is as follows: 20 mM MOPS/NaOH pH7, 1 mM EDTA, 5% glycerol, 0.01% Brij35, 0.1% 2-mercapto, 1 mg/ml BSA.
as §1
as §2, with “two hours” for “forty minutes”

Sequence of ALK (Q9UM73 19-1620, species assumed): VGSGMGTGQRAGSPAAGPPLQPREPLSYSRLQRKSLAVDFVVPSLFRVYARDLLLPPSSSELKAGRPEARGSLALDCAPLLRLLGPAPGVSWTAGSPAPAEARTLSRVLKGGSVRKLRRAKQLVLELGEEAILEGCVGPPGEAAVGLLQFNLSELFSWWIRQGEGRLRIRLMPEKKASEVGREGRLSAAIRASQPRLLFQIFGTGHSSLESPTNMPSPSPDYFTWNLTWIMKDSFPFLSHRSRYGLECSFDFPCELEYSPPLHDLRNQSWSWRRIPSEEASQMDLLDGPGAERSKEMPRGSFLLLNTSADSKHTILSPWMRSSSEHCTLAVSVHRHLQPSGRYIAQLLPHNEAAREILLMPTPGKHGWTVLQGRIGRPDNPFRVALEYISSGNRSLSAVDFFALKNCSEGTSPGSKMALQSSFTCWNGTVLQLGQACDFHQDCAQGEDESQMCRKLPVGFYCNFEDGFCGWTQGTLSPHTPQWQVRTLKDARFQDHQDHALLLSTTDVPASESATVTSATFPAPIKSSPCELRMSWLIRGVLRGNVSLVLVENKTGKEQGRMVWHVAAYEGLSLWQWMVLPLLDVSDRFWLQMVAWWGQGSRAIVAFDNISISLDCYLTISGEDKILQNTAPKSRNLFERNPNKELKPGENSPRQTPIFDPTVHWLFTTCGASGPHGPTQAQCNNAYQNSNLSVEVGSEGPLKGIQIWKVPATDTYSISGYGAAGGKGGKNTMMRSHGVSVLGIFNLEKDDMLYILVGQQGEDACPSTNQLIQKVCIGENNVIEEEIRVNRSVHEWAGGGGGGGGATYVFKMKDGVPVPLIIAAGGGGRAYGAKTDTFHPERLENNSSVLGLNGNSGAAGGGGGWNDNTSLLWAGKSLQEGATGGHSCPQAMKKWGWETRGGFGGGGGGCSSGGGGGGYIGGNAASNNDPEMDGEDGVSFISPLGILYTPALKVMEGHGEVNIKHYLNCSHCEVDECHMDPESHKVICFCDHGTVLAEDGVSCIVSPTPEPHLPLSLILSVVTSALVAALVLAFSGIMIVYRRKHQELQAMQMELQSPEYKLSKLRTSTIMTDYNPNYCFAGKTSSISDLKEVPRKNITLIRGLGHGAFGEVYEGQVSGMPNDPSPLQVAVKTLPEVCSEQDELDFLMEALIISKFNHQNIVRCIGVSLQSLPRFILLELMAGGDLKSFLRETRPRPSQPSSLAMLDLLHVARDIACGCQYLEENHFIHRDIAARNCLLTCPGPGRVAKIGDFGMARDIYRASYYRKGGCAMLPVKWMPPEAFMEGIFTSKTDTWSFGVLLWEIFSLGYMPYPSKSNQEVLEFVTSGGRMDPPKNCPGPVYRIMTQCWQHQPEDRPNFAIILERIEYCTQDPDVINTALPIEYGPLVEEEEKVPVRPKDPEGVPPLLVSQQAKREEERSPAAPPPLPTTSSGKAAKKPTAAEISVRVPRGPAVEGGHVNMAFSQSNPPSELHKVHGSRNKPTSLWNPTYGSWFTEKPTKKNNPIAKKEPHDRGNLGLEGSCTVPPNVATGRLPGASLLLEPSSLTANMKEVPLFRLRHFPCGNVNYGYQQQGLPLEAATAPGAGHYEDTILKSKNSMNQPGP
T3 sequence (P04629 33-796): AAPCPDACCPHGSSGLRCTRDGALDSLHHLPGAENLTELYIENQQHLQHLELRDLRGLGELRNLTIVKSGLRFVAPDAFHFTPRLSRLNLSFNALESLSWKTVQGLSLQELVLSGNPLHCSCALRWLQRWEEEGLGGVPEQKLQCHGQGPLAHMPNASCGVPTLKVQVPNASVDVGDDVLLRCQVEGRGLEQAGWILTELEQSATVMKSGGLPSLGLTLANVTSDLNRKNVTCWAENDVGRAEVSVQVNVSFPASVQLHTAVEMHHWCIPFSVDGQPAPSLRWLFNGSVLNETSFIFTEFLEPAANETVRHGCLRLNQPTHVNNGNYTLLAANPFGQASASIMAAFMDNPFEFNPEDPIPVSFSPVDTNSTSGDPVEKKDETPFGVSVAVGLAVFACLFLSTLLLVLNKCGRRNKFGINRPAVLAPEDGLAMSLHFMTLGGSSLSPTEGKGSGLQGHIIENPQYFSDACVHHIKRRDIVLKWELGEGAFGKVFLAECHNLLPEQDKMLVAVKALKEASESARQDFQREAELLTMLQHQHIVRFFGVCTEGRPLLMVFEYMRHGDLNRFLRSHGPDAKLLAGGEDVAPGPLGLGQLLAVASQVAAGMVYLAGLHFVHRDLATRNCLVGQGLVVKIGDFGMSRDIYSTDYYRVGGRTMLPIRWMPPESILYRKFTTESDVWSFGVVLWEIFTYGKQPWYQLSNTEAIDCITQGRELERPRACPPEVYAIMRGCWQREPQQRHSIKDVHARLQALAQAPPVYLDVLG
T2 sequence (P11309 whole entry): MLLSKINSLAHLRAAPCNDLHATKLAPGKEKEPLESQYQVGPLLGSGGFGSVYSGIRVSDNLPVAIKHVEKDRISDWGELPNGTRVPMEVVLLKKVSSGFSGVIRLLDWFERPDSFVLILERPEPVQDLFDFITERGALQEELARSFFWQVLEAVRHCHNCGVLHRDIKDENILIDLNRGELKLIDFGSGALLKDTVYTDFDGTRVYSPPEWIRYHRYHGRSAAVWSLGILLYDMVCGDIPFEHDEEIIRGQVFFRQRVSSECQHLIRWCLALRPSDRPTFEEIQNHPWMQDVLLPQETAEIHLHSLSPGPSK
T1 sequence (P07949 29-1114): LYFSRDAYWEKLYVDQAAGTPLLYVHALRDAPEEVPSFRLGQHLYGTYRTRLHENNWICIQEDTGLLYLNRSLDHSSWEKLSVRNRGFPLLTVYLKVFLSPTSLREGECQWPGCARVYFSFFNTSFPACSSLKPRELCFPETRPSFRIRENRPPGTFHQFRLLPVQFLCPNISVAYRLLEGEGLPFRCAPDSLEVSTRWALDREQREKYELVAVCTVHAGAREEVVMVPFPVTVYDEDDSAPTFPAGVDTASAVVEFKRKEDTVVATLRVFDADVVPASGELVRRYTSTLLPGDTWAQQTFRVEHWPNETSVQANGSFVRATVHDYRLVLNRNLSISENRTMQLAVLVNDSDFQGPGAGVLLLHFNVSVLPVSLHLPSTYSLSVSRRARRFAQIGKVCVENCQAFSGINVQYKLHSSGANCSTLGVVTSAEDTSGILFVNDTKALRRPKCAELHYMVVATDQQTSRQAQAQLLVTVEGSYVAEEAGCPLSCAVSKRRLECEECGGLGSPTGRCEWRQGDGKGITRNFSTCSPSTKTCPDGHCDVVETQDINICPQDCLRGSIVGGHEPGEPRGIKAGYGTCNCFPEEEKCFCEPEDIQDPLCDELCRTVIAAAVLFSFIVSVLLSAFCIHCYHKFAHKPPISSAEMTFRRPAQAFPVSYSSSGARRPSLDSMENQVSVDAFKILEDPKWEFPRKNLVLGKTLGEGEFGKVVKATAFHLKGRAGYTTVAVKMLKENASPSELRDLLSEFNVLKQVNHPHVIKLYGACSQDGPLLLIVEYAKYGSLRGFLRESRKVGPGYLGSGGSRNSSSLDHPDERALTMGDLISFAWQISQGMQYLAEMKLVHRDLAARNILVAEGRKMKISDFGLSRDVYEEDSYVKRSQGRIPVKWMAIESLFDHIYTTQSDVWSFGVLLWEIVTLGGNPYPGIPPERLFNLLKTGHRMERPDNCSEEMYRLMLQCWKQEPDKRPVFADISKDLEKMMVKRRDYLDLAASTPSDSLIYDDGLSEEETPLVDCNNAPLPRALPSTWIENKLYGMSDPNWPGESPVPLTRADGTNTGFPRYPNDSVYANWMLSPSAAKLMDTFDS
T4 sequence (Q16620 32-822): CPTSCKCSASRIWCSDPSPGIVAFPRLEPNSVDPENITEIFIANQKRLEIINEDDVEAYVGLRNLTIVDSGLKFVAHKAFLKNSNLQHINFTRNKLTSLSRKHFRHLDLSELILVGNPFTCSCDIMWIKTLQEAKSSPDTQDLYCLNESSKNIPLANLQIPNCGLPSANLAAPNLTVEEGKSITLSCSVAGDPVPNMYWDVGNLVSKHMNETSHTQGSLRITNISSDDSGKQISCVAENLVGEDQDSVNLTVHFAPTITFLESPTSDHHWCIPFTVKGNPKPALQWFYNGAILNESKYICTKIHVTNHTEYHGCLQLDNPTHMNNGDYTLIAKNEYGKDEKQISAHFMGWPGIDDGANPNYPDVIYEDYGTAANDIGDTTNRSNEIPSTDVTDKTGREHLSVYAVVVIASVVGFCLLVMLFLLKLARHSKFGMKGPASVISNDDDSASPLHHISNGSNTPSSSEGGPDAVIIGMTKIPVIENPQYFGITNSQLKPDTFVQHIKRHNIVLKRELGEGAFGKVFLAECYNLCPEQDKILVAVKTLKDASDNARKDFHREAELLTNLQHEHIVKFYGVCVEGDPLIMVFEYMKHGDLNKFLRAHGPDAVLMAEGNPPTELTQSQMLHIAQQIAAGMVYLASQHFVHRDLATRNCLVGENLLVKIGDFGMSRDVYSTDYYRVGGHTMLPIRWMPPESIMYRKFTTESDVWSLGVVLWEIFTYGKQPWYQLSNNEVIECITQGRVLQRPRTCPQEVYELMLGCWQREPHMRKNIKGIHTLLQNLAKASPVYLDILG

| SMILES | pIC50 (RET) | pIC50 (PIM-1) | pIC50 (TrkA) | pIC50 (TrkB) | pIC50 (ALK) |
| --- | --- | --- | --- | --- | --- |
| CCCOC(=O)c1c[nH]c2c(=O)[nH]c3ccc(S(=O)(=O)N(C[C@@H]4CCCN4)C4CC4)cc3c12 [Compound 144, (S)-8-(Cyclopropyl-pyrrolidin-2-ylmethyl-sulfamoyl)-4-oxo-4,5-dihydro-3H-pyrrolo[2,3-c]quinoline-1-propyl carboxylate hydrochloride] | > 7.00 | – | – | – | 6.00 to 7.00 |
| CCOC(=O)c1c[nH]c2c(=O)[nH]c3ccc(S(=O)(=O)NC[C@H]4CCNC4)cc3c12 [Compound 97, (S)-4-Oxo-8-[(pyrrolidin-3-methyl)-sulfamoyl]-4,5-dihydro-3H-pyrrolo[2,3-c]quinoline-1-ethyl carboxylate] | 6.00 to 7.00 | 4.00 to 5.00 | – | – | 6.00 to 7.00 |
| CCOC(=O)c1c[nH]c2c(=O)[nH]c3ccc(C(=O)N(C[C@@H]4CCCN4)C4CC4)cc3c12 [Compound 219, (S)-8-(cyclopropyl-pyrrolidin-2-ylmethyl-carbamoyl), 3-oxo-4,5-dihydro-3H-pyrrolo[2,3-c]quinoline-1-ethyl carboxylate hydrochloride] | 5.00 to 6.00 | – | – | – | 5.00 to 6.00 |
| CCCOC(=O)c1c[nH]c2c(=O)[nH]c3ccc(S(=O)(=O)N(C[C@H](C)N)C4CC4)cc3c12 [Compound 153, (S)-8-[(2-Amino-propyl)-cyclopropyl-sulfamoyl]-4-oxo-4,5-dihydro-3H-pyrrolo[2,3-c]quinoline-1-propyl carboxylate hydrochloride] | > 7.00 | – | – | – | 6.00 to 7.00 |
| CCOC(=O)c1c[nH]c2c(=O)[nH]c3ccc(S(=O)(=O)N4CC5CNCC5C4)cc3c12 (stereo not shown) [Compound 93, 8-(Octahydro-pyrrolo[3,4-c]pyrrole-2-sulfonyl)-4-oxo-4,5-dihydro-3H-pyrrolo[2,3-c]quinoline-1-ethyl carboxylate] | 6.00 to 7.00 | 5.00 to 6.00 | – | – | 6.00 to 7.00 |
| CCCOC(=O)c1c[nH]c2c(=O)[nH]c3ccc(S(=O)(=O)N(CC(C)(C)NC)C4CC4)cc3c12 [Compound 141, 8-[Cyclopropyl-(2-methyl-2-methylamino-propyl)-sulfamoyl]-4-oxo-4,5-dihydro-3H-pyrrolo[2,3-c]quinoline-1-propyl carboxylate hydrochloride] | 6.00 to 7.00 | – | – | – | 6.00 to 7.00 |
| C#CCN(C[C@@H]1CCCN1)S(=O)(=O)c1ccc2[nH]c(=O)c3[nH]cc(C(=O)OCCC)c3c2c1 [Compound 150, (S)-4-Oxo-8-(prop-2-ynyl-pyrrolidin-2-ylmethyl-sulfamoyl)-4,5-dihydro-3H-pyrrolo[2,3-c]quinoline-1-propyl carboxylate hydrochloride] | > 7.00 | – | – | – | 6.00 to 7.00 |
| CCCOC(=O)c1c[nH]c2c(=O)[nH]c3ccc(S(=O)(=O)N(C[C@@H]4CCCN4)C(C)C)cc3c12 [Compound 149, (S)-8-(Isopropyl-pyrrolidin-2-ylmethyl-sulfamoyl)-4-oxo-4,5-dihydro-3H-pyrrolo[2,3-c]quinoline-1-propyl carboxylate hydrochloride] | > 7.00 | – | – | – | 6.00 to 7.00 |
| CCCOC(=O)c1c[nH]c2c(=O)[nH]c3ccc(S(=O)(=O)NC4CCNCC4)cc3c12 [Compound 114, 4-Oxo-8-(piperidin-4-ylsulfamoyl)-4,5-dihydro-3H-pyrrolo[2,3-c]quinoline-1-propyl carboxylate] | > 7.00 | 5.00 to 6.00 | 4.00 to 5.00 | 4.00 to 5.00 | – |
| CCOC(=O)c1c[nH]c2c(=O)[nH]c3ccc(S(=O)(=O)NC4CN5CCC4CC5)cc3c12 (stereo not shown) [Compound 94, 8-(1-Azabicyclo[2.2.2]oct-3-ylsulfamoyl)-4-oxo-4,5-dihydro-3H-pyrrolo[2,3-c]quinoline-1-ethyl carboxylate] | 6.00 to 7.00 | – | – | – | 6.00 to 7.00 |
| CCCOC(=O)c1c[nH]c2c(=O)[nH]c3ccc(S(=O)(=O)N(C)C4CN(C(c5ccccc5)c5ccccc5)C4)cc3c12 [Compound 130, 8-[(1-Benzhydryl-azetidin-3-yl)-methyl-sulfamoyl]-4-oxo-4,5-dihydro-3H-pyrrolo[2,3-c]quinoline-1-propyl carboxylate] | 6.00 to 7.00 | – | – | – | 6.00 to 7.00 |
| CCCOC(=O)c1c[nH]c2c(=O)[nH]c3ccc(S(=O)(=O)N(C[C@@H](C)N)C4CC4)cc3c12 [Compound 155, (R)-8-[(2-Amino-propyl)-cyclopropyl-sulfamoyl]-4-oxo-4,5-dihydro-3H-pyrrolo[2,3-c]quinoline-1-propyl carboxylate hydrochloride] | > 7.00 | – | – | – | 6.00 to 7.00 |
| CCOC(=O)c1c[nH]c2c(=O)[nH]c3ccc(NS(=O)(=O)c4ccccc4)cc3c12 [Compound 37, 8-Benzenesulfonylamino-4-oxo-4,5-dihydro-3H-pyrrolo[2,3-c]quinoline-1-ethyl carboxylate] | 6.00 to 7.00 | 4.00 to 5.00 | 5.00 to 6.00 | 5.00 to 6.00 | – |
| CCCOC(=O)c1c[nH]c2c(=O)[nH]c3ccc(S(=O)(=O)N(C[C@@H]4CCCN4C)C4CC4)cc3c12 [Compound 145, (S)-8-[Cyclopropyl-(1-methyl-pyrrolidin-2-ylmethyl)sulfamoyl]-4-oxo-4,5-dihydro-3H-pyrrolo[2,3-c]quinoline-1-propyl carboxylate] | 6.00 to 7.00 | – | – | – | 5.00 to 6.00 |

More lines, main results first:

| pIC50 (RET) | pIC50 (PIM-1) | pIC50 (TrkA) | pIC50 (TrkB) | SMILES | pIC50 (ALK) |
| --- | --- | --- | --- | --- | --- |
| 6.00 to 7.00 | – | – | – | CCOC(=O)c1c[nH]c2c(=O)[nH]c3ccc(S(=O)(=O)NC4CC4)cc3c12 [Compound 123, 8-Cyclopropylsulfamoyl-4-oxo-4,5-dihydro-3H-pyrrolo[2,3-c]quinoline-1-ethyl carboxylate] | 5.00 to 6.00 |
| > 7.00 | 4.00 to 5.00 | 5.00 to 6.00 | 4.00 to 5.00 | CCOC(=O)c1c[nH]c2c(=O)[nH]c3ccc(S(=O)(=O)N(C)c4ccccc4)cc3c12 [Compound 3, 8-(Methyl-phenylsulfamoyl)-4-oxo-4,5-dihydro-3H-pyrrolo[2,3-c]quinoline-1-ethyl carboxylate] | – |
| > 7.00 | 4.00 to 5.00 | 5.00 to 6.00 | 5.00 to 6.00 | CCOC(=O)c1c[nH]c2c(=O)[nH]c3ccc(S(=O)(=O)N(CCC#N)C4CC4)cc3c12 [Compound 127, 8-[(2-Cyano-ethyl)-cyclopropyl-sulfamoyl]-4-oxo-4,5-dihydro-3H-pyrrolo[2,3-c]quinoline-1-ethyl carboxylate] | – |
| 5.00 to 6.00 | 5.00 to 6.00 | 5.00 to 6.00 | 5.00 to 6.00 | CCOC(=O)c1c[nH]c2c(=O)[nH]c3ccc(S(=O)(=O)O)cc3c12 [Compound 227, 4-Oxo-8-sulfo-4,5-dihydro-3H-pyrrolo[2,3-c]quinoline-1-ethyl carboxylate] | – |
| 6.00 to 7.00 | 5.00 to 6.00 | 4.00 to 5.00 | 4.00 to 5.00 | O=C(OCC1CCCCC1)c1c[nH]c2c(=O)[nH]c3ccc(S(=O)(=O)NC4CCNCC4)cc3c12 [Compound 117] | – |
| 6.00 to 7.00 | – | – | – | CCCOC(=O)c1c[nH]c2c(=O)[nH]c3ccc(S(=O)(=O)N(C)CC(N)=O)cc3c12 [Compound 177, 8-(Carbamoylmethyl-methyl-sulfamoyl)-4-oxo-4,5-dihydro-3H-pyrrolo[2,3-c]quinoline-1-propyl carboxylate] | 6.00 to 7.00 |
| 6.00 to 7.00 | 5.00 to 6.00 | 4.00 to 5.00 | 4.00 to 5.00 | CCNc1nccc(-c2ccc3[nH]c(=O)c4[nH]cc(C(=O)OCC)c4c3c2)n1 [Compound 264, 8-(2-Ethylamino-pyrimidin-4-yl)-4-oxo-4,5-dihydro-3H-pyrrolo[2,3-c]quinoline-1-ethyl carboxylate] | – |
